ChEMBL document CHEMBL1154991, “Activity-guided isolation of antioxidative constituents of Cotinus coggygria” (J Nat Prod, 2000)
Converted amounts (≈) assume the structure as drawn.

System: Radical scavenging activity
Test: Antioxidant activity assessed as DPPH radical scavenging activity after 30 mins
Assay type: functional

SMILES	IC50
COc1ccc(O)c(C(C)(C)C)c1.COc1ccc(O)cc1C(C)(C)C [BUTYLATED HYDROXYANISOLE]	21 µg/mL
O=C(O)c1cc(O)c(O)c(O)c1 [GALLIC ACID]	10 µg/mL (≈ 58.8 µM)
O=C(OC[C@H]1O[C@@H](OC(=O)c2cc(O)c(O)c(O)c2)[C@H](OC(=O)c2cc(O)c(O)c(O)c2)[C@@H](OC(=O)c2cc(O)c(O)c(O)c2)[C@@H]1OC(=O)c1cc(O)c(O)c(O)c1)c1cc(O)c(O)c(O)c1 [PENTAGALLOYL GLUCOSE]	12.6 µg/mL (≈ 13.4 µM)
O=C1/C(=C/c2ccc(O)c(O)c2)Oc2cc(O)ccc21 [SULFURETIN]	16.1 µg/mL (≈ 59.6 µM)

More lines, now with the values ahead:

IC50	SMILES
9.7 µg/mL (≈ 18 µM)	O=C1/C(=C(/C(=C2\Oc3cc(O)ccc3C2=O)c2ccc(O)c(O)c2)c2ccc(O)c(O)c2)Oc2cc(O)ccc21
22 µg/mL (≈ 125 µM)	O=C1O[C@H]([C@@H](O)CO)C(O)=C1O [ASCORBIC ACID]
18.6 µg/mL (≈ 101 µM)	COC(=O)c1cc(O)c(O)c(O)c1 [GALLIC ACID METHYL ESTER]
18.7 µg/mL (≈ 43.2 µM)	O=C1/C(=C/c2ccc(O)c(O)c2)Oc2cc(O[C@@H]3O[C@H](CO)[C@@H](O)[C@H](O)[C@H]3O)ccc21 [SULFUREIN]
